Biological target: hKIF18A (1-374) (Homo sapiens (Human), UniProt Q8NI77)
Assay: Inhibition of KIF18A microtubule-dependent ATPase activity (ADP-Glo)
Format: biochemical
Settings: 4 nM hKIF18A (1-374)
Method in brief: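 Reaction was started with pre-formed microtubules and ATP (0.2 mg/mL and 2.0 mM in the added mix) and run 60 min at 28 °C. ADP was read by ADP-Glo luminescence, and IC50 came from a four-parameter fit of % inhibition.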

hKIF18A (1-374), sequence (Q8NI77 1-374): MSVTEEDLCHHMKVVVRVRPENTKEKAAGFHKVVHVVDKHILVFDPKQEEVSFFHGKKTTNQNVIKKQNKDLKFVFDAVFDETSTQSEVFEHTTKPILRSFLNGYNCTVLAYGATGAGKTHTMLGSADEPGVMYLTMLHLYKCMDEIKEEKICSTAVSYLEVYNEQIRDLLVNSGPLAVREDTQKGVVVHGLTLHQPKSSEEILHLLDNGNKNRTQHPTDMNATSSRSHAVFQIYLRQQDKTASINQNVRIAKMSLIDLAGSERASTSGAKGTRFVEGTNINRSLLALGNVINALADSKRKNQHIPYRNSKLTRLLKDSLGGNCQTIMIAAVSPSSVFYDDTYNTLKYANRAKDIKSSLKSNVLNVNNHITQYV

Row | IC50 [µM] | Molecule
1 | 0.0085 | CCS(=O)(=O)Nc1ccc(-n2cc(-c3ccc(S(=O)(=O)NC(C)(C)C)o3)nn2)c(N2CCC3(CC2)CC3)c1 [Compound 132, N-(tert-butyl)-5-(1-(4-(ethylsulfonamido)-2-(6-azaspiro[2.5]octan-6-yl)phenyl)-1H-1,2,3-triazol-4-yl)furan-2-sulfonamide]
2 | 0.0044 | O=S(=O)(CCO)Nc1ccc(-n2cc(-c3cc(CO)nc(N4CCC(F)(F)CC4)n3)nn2)c(N2CCC3(CC2)CC3)c1 [Compound 160, N-(4-(4-(2-(4,4-difluoropiperidin-1-yl)-6-(hydroxymethyl)pyrimidin-4-yl)-1H-1,2,3-triazol-1-yl)-3-(6-azaspiro[2.5]octan-6-yl)phenyl)-2-hydroxyethane-1-sulfonamide]
3 | 0.027 | Cc1cc(-c2cn(-c3ccc(NS(=O)(=O)CCCO)cc3N3CCC4(CC3)CC4)nn2)nc(N2CCC(F)(F)CC2)n1 [Compound 151, N-(4-(4-(2-(4,4-difluoropiperidin-1-yl)-6-methylpyrimidin-4-yl)-1H-1,2,3-triazol-1-yl)-3-(6-azaspiro[2.5]octan-6-yl)phenyl)-3-hydroxypropane-1-sulfonamide]
4 | 0.0072 | CS(=O)(=O)Nc1ccc(-n2cc(-c3csc(N4CCC(F)(F)CC4)n3)nn2)c(N2CCC3(CC2)CC3)c1 [Compound 50, N-(4-(4-(2-(4,4-difluoropiperidin-1-yl)thiazol-4-yl)-1H-1,2,3-triazol-1-yl)-3-(6-azaspiro[2.5]octan-6-yl)phenyl)methanesulfonamide]
5 | 0.014 | O=S(=O)(CCO)Nc1ccc(-c2cn(-c3ccc(F)c(S(=O)(=O)N4CC(F)(F)C4)c3)nn2)c(N2CCC3(CC2)CC3)c1 [Compound 129, N-(4-(1-(3-((3,3-difluoroazetidin-1-yl)sulfonyl)-4-fluorophenyl)-1H-1,2,3-triazol-4-yl)-3-(6-azaspiro[2.5]octan-6-yl)phenyl)-2-hydroxyethane-1-sulfonamide]
6 | 0.016 | N-(4-(4-(2-((3S,4R)-3,4-difluoropyrrolidin-1-yl)-6-methylpyrimidin-4-yl)-1H-1,2,3-triazol-1-yl)-3-(6-azaspiro[2.5]octan-6-yl)phenyl)-2-hydroxyethane-1-sulfonamide [Compound 107]
7 | 0.012 | O=S(=O)(CCO)Nc1ccc(-n2cc(-c3ccn(CC4CCC4)n3)nn2)c(N2CCC3(CC2)CC3)c1 [Compound 77, N-(4-(4-(1-(cyclobutylmethyl)-1H-pyrazol-3-yl)-1H-1,2,3-triazol-1-yl)-3-(6-azaspiro[2.5]octan-6-yl)phenyl)-2-hydroxyethane-1-sulfonamide]
8 | 0.071 | O=S(=O)(CCO)Nc1ccc(-n2cc(-c3ccc(C4CCCC4)o3)nn2)c(N2CCC3(CC2)CC3)c1 [Compound 126, N-(4-(4-(5-cyclopentylfuran-2-yl)-1H-1,2,3-triazol-1-yl)-3-(6-azaspiro[2.5]octan-6-yl)phenyl)-2-hydroxyethane-1-sulfonamide]
9 | 0.013 | Cc1cc(-c2cn(-c3ccc(NS(=O)(=O)CCO)cc3N3CCC(F)(F)CC3)nn2)nc(N2CCC(F)(F)CC2)c1 [Compound 80, N-(3-(4,4-difluoropiperidin-1-yl)-4-(4-(6-(4,4-difluoropiperidin-1-yl)-4-methylpyridin-2-yl)-1H-1,2,3-triazol-1-yl)phenyl)-2-hydroxyethane-1-sulfonamide]
10 | 0.015 | CCS(=O)(=O)Nc1ccc(-n2cc(-c3cccc(S(=O)(=O)NC(C)(C)C)c3)nn2)c(N2CCC(C(F)F)CC2)c1 [Compound 118, N-(tert-butyl)-3-(1-(2-(4-(difluoromethyl)piperidin-1-yl)-4-(ethylsulfonamido)phenyl)-1H-1,2,3-triazol-4-yl)benzenesulfonamide]
11 | 0.0028 | O=S(=O)(CCO)Nc1cc(N2CCC3(CC2)CC3)c(-n2cc(-c3cncc(N4CCC(F)(F)CC4)n3)nn2)cc1F [Compound 144, N-(4-(4-(6-(4,4-difluoropiperidin-1-yl)pyrazin-2-yl)-1H-1,2,3-triazol-1-yl)-2-fluoro-5-(6-azaspiro[2.5]octan-6-yl)phenyl)-2-hydroxyethane-1-sulfonamide]
12 | 0.011 | CS(=O)(=O)Nc1ccc(-n2cc(-c3cccc(C(O)C4CCCC4)n3)nn2)c(N2CCC3(CC2)CC3)c1 (stereo not shown) [Compound 22, N-(4-(4-(6-(cyclopentyl(hydroxy)methyl)pyridin-2-yl)-1H-1,2,3-triazol-1-yl)-3-(6-azaspiro[2.5]octan-6-yl)phenyl)methanesulfonamide]
13 | 0.0047 | CS(=O)(=O)Nc1ccc(-n2cc(-c3ccc(C(O)C4CCCC4)o3)nn2)c(N2CCC3(CC2)CC3)c1 (stereo not shown) [Compound 25, N-(4-(4-(5-(cyclopentyl(hydroxy)methyl)furan-2-yl)-1H-1,2,3-triazol-1-yl)-3-(6-azaspiro[2.5]octan-6-yl)phenyl)methanesulfonamide]
14 | 0.058 | Cc1cc(-n2cc(-c3ccc(NS(=O)(=O)CCO)cc3N3CCC4(CC3)CC4)nn2)cc(N2CCC(F)(F)CC2)n1 [Compound 114]
15 | 0.12 | Cc1cc(-c2cn(-c3ccc(NS(=O)(=O)CCO)cc3N3CCC4(CC4)C3)nn2)nc(N2CCC(F)(F)CC2)n1 [Compound 88, N-(4-(4-(2-(4,4-difluoropiperidin-1-yl)-6-methylpyrimidin-4-yl)-1H-1,2,3-triazol-1-yl)-3-(5-azaspiro[2.4]heptan-5-yl)phenyl)-2-hydroxyethane-1-sulfonamide]
16 | 0.01 | O=S(=O)(CCO)Nc1ccc(-n2cc(-c3nc(N4CCC(F)(F)CC4)sc3F)nn2)c(N2CCC3(CC2)CC3)c1 [Compound 93, N-(4-(4-(2-(4,4-difluoropiperidin-1-yl)-5-fluorothiazol-4-yl)-1H-1,2,3-triazol-1-yl)-3-(6-azaspiro[2.5]octan-6-yl)phenyl)-2-hydroxyethane-1-sulfonamide]
17 | 5.6 | c1cc(-c2nnc(-c3cccnc3N3CCC4(CC3)CC4)[nH]2)nc(N2CCOCC2)c1 [Compound 4, 4-(6-(5-(2-(6-azaspiro[2.5]octan-6-yl)pyridin-3-yl)-4H-1,2,4-triazol-3-yl)pyridin-2-yl)morpholine]
18 | 0.025 | Cc1cc(-c2nnc(-c3ccc(NS(C)(=O)=O)cc3N3CCC4(CC3)CC4)[nH]2)nc(N2CCOCC2)n1 [Compound 6, N-(4-(5-(6-methyl-2-morpholinopyrimidin-4-yl)-4H-1,2,4-triazol-3-yl)-3-(6-azaspiro[2.5]octan-6-yl)phenyl)methanesulfonamide]
19 | 0.0051 | O=S(=O)(CCO)Nc1ccc(-c2nnc(-c3cccc(N4CCC(F)(F)CC4)n3)[nH]2)c(N2CCC3(CC2)CC3)c1 [Compound 8, N-(4-(5-(6-(4,4-difluoropiperidin-1-yl)pyridin-2-yl)-4H-1,2,4-triazol-3-yl)-3-(6-azaspiro[2.5]octan-6-yl)phenyl)-2-hydroxyethane-1-sulfonamide]
20 | 0.018 | Cc1cc(-c2cn(-c3ccc(NS(=O)(=O)CCO)cc3N3CCCCC3)nn2)nc(N2CC3C(C2)C3(F)F)n1 (stereo not shown) [Compound 74, N-(4-(4-(2-(6,6-difluoro-3-azabicyclo[3.1.0]hexan-3-yl)-6-methylpyrimidin-4-yl)-1H-1,2,3-triazol-1-yl)-3-(piperidin-1-yl)phenyl)-2-hydroxyethane-1-sulfonamide]
21 | 0.042 | Cn1cc(-c2cn(-c3ccc(NS(=O)(=O)CCO)cc3N3CCC4(CC3)CC4)nn2)nc1N1CCC(F)(F)CC1 [Compound 119, N-(4-(4-(2-(4,4-difluoropiperidin-1-yl)-1-methyl-1H-imidazol-4-yl)-1H-1,2,3-triazol-1-yl)-3-(6-azaspiro[2.5]octan-6-yl)phenyl)-2-hydroxyethane-1-sulfonamide]
22 | 0.0082 | O=S(=O)(CCO)Nc1ccc(-n2cc(-c3ccn(C4CCC(F)(F)CC4)n3)nn2)c(N2CCC3(CC2)CC3)c1 [Compound 84, N-(4-(4-(1-(4,4-difluorocyclohexyl)-1H-pyrazol-3-yl)-1H-1,2,3-triazol-1-yl)-3-(6-azaspiro[2.5]octan-6-yl)phenyl)-2-hydroxyethane-1-sulfonamide]
23 | 0.0091 | CC(C)(C)NS(=O)(=O)c1cccc(-c2cn(-c3ccc(NS(C)(=O)=O)cc3N3CCC4(CC3)CC4)nn2)c1 [Compound 12, N-(tert-butyl)-3-(1-(4-(methylsulfonamido)-2-(6-azaspiro[2.5]octan-6-yl)phenyl)-1H-1,2,3-triazol-4-yl)benzenesulfonamide]
24 | 0.037 | CS(=O)(=O)Nc1ccc(-n2cc(-c3cccc(N4CC5(CCC5)C4)n3)nn2)c(N2CCC3(CC2)CC3)c1 [Compound 57, N-(4-(4-(6-(2-azaspiro[3.3]heptan-2-yl)pyridin-2-yl)-1H-1,2,3-triazol-1-yl)-3-(6-azaspiro[2.5]octan-6-yl)phenyl)methanesulfonamide]
25 | 0.023 | O=S(=O)(CCO)Nc1ccc(-c2cn(-c3cccc(OC4CCCC4)n3)nn2)c(N2CCC3(CC2)CC3)c1 [Compound 113, N-(4-(1-(6-(cyclopentyloxy)pyridin-2-yl)-1H-1,2,3-triazol-4-yl)-3-(6-azaspiro[2.5]octan-6-yl)phenyl)-2-hydroxyethane-1-sulfonamide]
26 | 0.0028 | O=S(=O)(CCO)Nc1ccc(-n2cc(-c3ccc(C(O)C4CCCC4)o3)nn2)c(N2CCC3(CC2)CC3)c1 (stereo not shown) [Compound 51, N-(4-(4-(5-(cyclopentyl(hydroxy)methyl)furan-2-yl)-1H-1,2,3-triazol-1-yl)-3-(6-azaspiro[2.5]octan-6-yl)phenyl)-2-hydroxyethane-1-sulfonamide]
27 | 0.0063 | CCS(=O)(=O)Nc1ccc(-n2cc(-c3cncc(N4CCC(F)(F)CC4)n3)nn2)c(N2CCC3(CC2)CC3)c1 [Compound 137, N-(4-(4-(6-(4,4-difluoropiperidin-1-yl)pyrazin-2-yl)-1H-1,2,3-triazol-1-yl)-3-(6-azaspiro[2.5]octan-6-yl)phenyl)ethanesulfonamide]
28 | 0.009 | O=S(=O)(CCO)Nc1ccc(-n2cc(-c3ccc(C4=CCCC4)o3)nn2)c(N2CCC3(CC2)CC3)c1 [Compound 125, N-(4-(4-(5-(cyclopent-1-en-1-yl)furan-2-yl)-1H-1,2,3-triazol-1-yl)-3-(6-azaspiro[2.5]octan-6-yl)phenyl)-2-hydroxyethane-1-sulfonamide]
